# US6849596B1, “Regulatory/unfolding peptides of ezrin” (priority 1999, dated 2005)
# What was measured:
# [1] = test system: IgG serum antibody response to Ovalbumin; experiment: Adjuvant activity: IgG serum antibody response to Ovalbumin in mice; assay type: in vivo; settings: for IgG response recorded as OD: 50 micrograms Ovalbumin, two weeks, sera 1 to 100; for IgG response recorded as OD then rebased relative to 100 for each control: control = 100
# Description: Adjuvant Activity of Hepreceptor Peptides Enhancing the IgG Serum Antibody Response to Ovalbumin in Mice
# The IgG response in mice two weeks after an injection of 50 micrograms of Ovalbumin plus various concentrations of different hepreceptor peptides was determined. IgG response was measured by Optical Density (OD) of a 1 to 100 dilution of mouse sera in the presence of Ovalbumin.
# IgG response recorded as OD
# IgG response recorded as OD then data rebased relative to 100 for each control
# [2] = test system: HLA Class I on human White Blood Cells; experiment: Expression of MHC (HLA) Class I on human White Blood Cells; assay type: cell-based; settings: 0.003 micrograms per ml
# Excerpt: A cell specific effect of this activation was an increase in the population of monocytes expressing MHC Class I and a decrease in the population of CD8 lymphocytes expressing MHC Class I.
# [3] = test system: antibody forming cells against sheep erythocytes (SRBC); experiment: Antibody forming cells against sheep erythocytes (SRBC) in mice, plaque count; assay type: in vivo; settings: four days after SRBC, thirty mice per data point
# Description: Activity of Hepreceptor Peptides Enhancing the Antibody-Dependent Cytotoxic Response in […] to Sheep Red Blood Cells (SRBC) in Mice
# The influence of Hepreceptor peptides on the activation of antibody forming cells against sheep erythocytes (SRBC) in Mice (CBA-C57B1 Fi hybrids. 2 months old, weight 18-22 grams) was determined. Mice were first injected intraperitoneally using either 0.5 ml sterile saline as a control or Hepreceptor peptides in the same volume of saline. 30 minutes after the injection of Hepreceptor peptides, a cell suspension containing 5 million SRBC was administered intraperitoneally to each mouse. Four days after the immunisation, the mice were killed by cervical dislocation and the spleens were obtained aseptically. Each spleen was homogenised in 2 ml of Medium 199, then 100 microliters of this suspension was put into 1 ml of prepared agarose in Medium 199 (stored in water bath at 48° C.), SRBC suspension was added, resulting in a final concentration of 1% agarose. The Im1 of agarose-cell mixture was agitated then transferred to petri dish to set. When the agarose became solid, the petri dish was incubated for 1 hour at 37° C. then 0.5 ml of 1-in-20 diluted guinea pig serum in Medium 199 was added on top of agarose gel as a source of complement. The incubation was continued for another 1 hour. The dishes were then visualised using an 8×binocular microscope and the number of plaques counted (each plaque equivalent to one antibody secreting mouse spleen cell). The results were expressed both as the number of antibody secreting cells per one million nucleated spleen cells and the number of antibody secreting cells per whole spleen.
# Averaged data (from thirty mice per data point) of the number of antibody forming cells per one million nucleated spleen cells. The data was re-based relative to 100 for each control group.
# [4] = test system: transplanted sarcoma of the uterus SM-322; experiment: Transplanted mouse sarcoma SM-322 model; assay type: in vivo, CBA mice; settings: control 12-16
# [5] = IP injection 0.01 micrograms per mouse
# [6] = IP injection 0.1 micrograms per mouse
# [7] = IP injection 1 microgram per mouse
# [8] = IP injection 10 micrograms per mouse
sequence,measurement,setting,value
KKRRETVERE (Hepreceptor peptide) [Rupe312],IgG response recorded as OD,[1]; [5],0.68 OD
same,IgG response recorded as OD then rebased relative to 100 for each control,[1]; [5],99
same,IgG response recorded as OD,[1]; [6],0.88 OD
same,IgG response recorded as OD then rebased relative to 100 for each control,[1]; [6],128
same,IgG response recorded as OD,[1]; [7],0.55 OD
same,IgG response recorded as OD then rebased relative to 100 for each control,[1]; [7],80
same,IgG response recorded as OD,[1]; [8],0.44 OD
same,IgG response recorded as OD then rebased relative to 100 for each control,[1]; [8],64
same,relative activity in lowering intensity of HLA expression on WBC,[2]; 24 hours,more active than Rupe 414
same,"Density of cell surface expression of HLA Class I, rebased to 100 for control","[2]; B and NK cells, 24 hours",73
same,"Percentage of cell population expressing HLA Class I, rebased to 100 for control","[2]; B and NK cells, 24 hours",105
same,"Density of cell surface expression of HLA Class I, rebased to 100 for control","[2]; CD4 lymphocytes, 24 hours",70
same,"Percentage of cell population expressing HLA Class I, rebased to 100 for control","[2]; CD4 lymphocytes, 24 hours",104
same,"Density of cell surface expression of HLA Class I, rebased to 100 for control","[2]; CD8 lymphocytes, 24 hours",72
same,"Percentage of cell population expressing HLA Class I, rebased to 100 for control","[2]; CD8 lymphocytes, 24 hours",85
same,"Density of cell surface expression of HLA Class I, rebased to 100 for control","[2]; Granulocytes, 24 hours",81
same,"Percentage of cell population expressing HLA Class I, rebased to 100 for control","[2]; Granulocytes, 24 hours",98
same,"Percentage of cell population expressing HLA Class I, rebased to 100 for control","[2]; Monocytes/Macrophages, 24 hours",119
same,"Density of cell surface expression of HLA Class I, rebased to 100 for control","[2]; Monocytes/Macrophages, 24 hours at 37° C.",71
same,"number of antibody forming cells per one million nucleated spleen cells, re-based relative to 100 for control",[3]; [7],317
same,"number of antibody forming cells per one million nucleated spleen cells, re-based relative to 100 for control",[3]; [8],267
same,Days of life expectancy,[4]; 0.1 Microg/mouse IP twice weekly,12 to 22 days
same,Days of life expectancy,[4]; 1 Microg/mouse IP twice weekly,12 to 19 days
same,Days of life expectancy,[4]; 10 Microg/mouse IP twice weekly,12 to 27 days
